Experimental data taken from US6399570B1, “Antimicrobial/endotoxin neutralizing polypeptide” (priority 1999, dated 2002).

Tested on: E. coli LPS
Test: Limulus ELISA, ENC50 against E. coli LPS
Format: biochemical, Escherichia coli O113:H10
Description: The peptide-mediated inhibition of endotoxin-induced Limulus amebocyte lysate (LAL) coagulation was measured with a sensitive LAL assay (Zhang et al., J. Clin. Microbiol. 32: 416-422 (1994)). Limulus ELISA is an endotoxin assay based on activation of the LAL coagulation by endotoxin and detection of the generated peptide-C immunoreactivity with an ELISA using a monoclonal antibody to the polypeptide. Endotoxin was defined to be neutralized when it lost its ability to activate the LAL enzymes. The 50% endotoxin-neutralizing concentration (ENC50) reflects the potency of an anti-endotoxin agent; a low ENC50 indicates high potency. Table 2 lists the determined ENC50 value of each anti-endotoxin agent against lipid A and four different types of LPS. The potency of each anti-endotoxin agent varied depending on the type of endotoxin. […] The only difference between the sequence of LF-33 and LF-27 is that LF-27 lacks the first six residues (GRRRRS) at the N-terminus of LF-33. Remarkably, this deletion led to dramatic loss of the endotoxin-neutralizing capacity of the polypeptide in this assay. Binding of serum proteins to endotoxin neutralizes the endotoxin activity in this assay by preventing endotoxin from activating LAL (Emancipator et al., Infect. Immun. 60: 596-601 (1992)).
LPS. […] LPS (purity >99%) from Neisseria meningitidis was prepared from the group B strain #6275 and its potency was 25 EU/ng. […] The potency of the above endotoxin was determined with the Limulus enzyme-linked immunosorbent assay (ELISA, 43) in comparison with US Pharmacopeia reference standard endotoxin EC-5.
Briefly, 25 μl endotoxin solution (200 EU/ml) was mixed with an equal volume of test materials in a series of two-fold dilution in 0.15 M NaCl in a sterile 96-well tissue culture plate (Nunc A/S, Roskilde, Denmark), and incubated at 37° C. for 1 h in a dry-air incubator. […] The endotoxin activity was then quantified with the use of Limulus ELISA (Zhang et al., J. Clin. Microbiol. 32: 416-422 (1994)). […] The high sensitivity of the assay allowed for very low levels of the endotoxin activity to be detected. […]

CSCC[C@H](NC(=O)[C@H](CC(N)=O)NC(=O)[C@H](CCCNC(=N)N)NC(=O)[C@H](CCC(N)=O)NC(=O)[C@H](Cc1c[nH]c2ccccc12)NC(=O)[C@H](CCC(N)=O)NC(=O)[C@H](Cc1ccccc1)NC(=O)[C@H](CS)NC(=O)[C@H](CCCCN)NC(=O)[C@@H](NC(=O)[C@H](C)NC(=O)[C@H](CCC(=O)O)NC(=O)[C@@H]1CCCN1C(=O)[C@H](CCC(N)=O)NC(=O)[C@H](CO)NC(=O)[C@@H](NC(=O)[C@H](C)NC(=O)[C@H](CS)NC(=O)[C@H](Cc1c[nH]c2ccccc12)NC(=O)[C@H](CCC(N)=O)NC(=O)[C@@H](N)C(C)C)C(C)C)[C@@H](C)O)C(=O)N[C@@H](CCCNC(=N)N)C(=O)N[C@@H](CCCCN)C(=O)N[C@H](C(=O)N[C@@H](CCCNC(=N)N)C(=O)NCC(=O)N1CCC[C@H]1C(=O)O)C(C)C [LF-27]
fold less potent than LF-33 at neutralizing E. coli LPS: approximately 10 fold | IC50 (endotoxin 200 EU/ml, mean +/− SD): 7.45 µM
